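In this assay, cells in 96-well plates receive the compound at five concentrations for 48 hours. Endpoints are linearly interpolated between the surrounding concentrations. TGI: concentration producing complete growth inhibition.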
What was measured:
Assay in all cases: growth of human tumour cells (NCI), 48 h
K-562 leukemia = system: K-562 leukemia
KM12 colon = system: KM12 colon
MCF7 breast = system: MCF7 breast
MDA-MB-435 = system: MDA-MB-435
MOLT-4 leukemia = system: MOLT-4 leukemia
OVCAR-8 ovarian = system: OVCAR-8 ovarian
PC-3 prostate = system: PC-3 prostate
BT-549 breast = system: BT-549 breast
NCI-H460 lung = system: NCI-H460 lung
OVCAR-3 ovarian = system: OVCAR-3 ovarian

Row | Compound | TGI (K-562 leukemia) | TGI (KM12 colon) | TGI (MCF7 breast) | TGI (MDA-MB-435) | TGI (MOLT-4 leukemia) | TGI (OVCAR-8 ovarian) | TGI (PC-3 prostate) | TGI (BT-549 breast) | TGI (NCI-H460 lung) | TGI (OVCAR-3 ovarian)
1 | CN(C)N1C(=C(C#N)C#N)C(c2ccccc2)CC1C#N (stereo unspecified) | > 100 µM | > 100 µM | > 100 µM | > 100 µM | > 100 µM | > 100 µM | > 100 µM |  |  | 
2 | CC1(N2CCOCC2)CC2C(=[N+]1[O-])CCC/C2=N/O (stereo unspecified) | > 100 µM | > 100 µM | > 100 µM | > 100 µM | > 100 µM | > 100 µM | > 100 µM | > 100 µM | > 100 µM | > 100 µM
3 | Cc1c2ccccc2c(/C=N/NC(=O)CSCC(=O)N/N=C/c2c3ccccc3c(C)c3ccccc23)c2ccccc12 | > 100 µM | > 100 µM | > 78.7 µM | > 100 µM | > 87.8 µM | > 86.4 µM | > 67.5 µM | > 90.1 µM | > 100 µM | > 80.9 µM
4 | CCOC(=O)c1nc2ccccc2nc1Nc1cc(OC)c(OC)c(OC)c1 | > 100 µM | > 100 µM | > 100 µM | > 100 µM | > 100 µM |  |  | > 100 µM | > 100 µM | > 100 µM
5 | CN(C)c1ccc(-c2c(C#N)c(-c3ccccc3)n(NS(=O)(=O)c3ccccc3)c(=O)c2C#N)cc1 | > 100 µM | > 100 µM | > 100 µM | > 100 µM | 55.8 µM | > 100 µM | > 100 µM | > 100 µM | > 100 µM | 
6 | N#C/C=C(/NC(=O)Nc1ccccc1)N1CCCC1 | > 100 µM | > 100 µM | > 55 µM | > 100 µM | > 100 µM | > 51.8 µM | > 54.5 µM | > 100 µM | > 55.4 µM | > 100 µM
7 | C#CCOC(=O)C=[N+]=[N-] | > 10 µM | > 10 µM | > 10 µM | > 10 µM | > 10 µM | > 10 µM | > 10 µM | > 10 µM | > 10 µM | > 10 µM
8 | Cc1cccc(C)c1NC(=S)N/C=C(\C#N)C(N)=O | > 100 µM | > 100 µM | > 100 µM | > 100 µM | > 100 µM | > 100 µM | > 100 µM |  | > 100 µM | > 100 µM
9 | COc1ccc(C2c3cc4c(cc3OC(N3CCOCC3)C2C)OCO4)cc1OC (stereo unspecified) | > 56.5 µM | > 100 µM | > 96 µM | 6.25 µM | 77.9 µM | > 100 µM | > 100 µM | > 100 µM | > 63.8 µM | 13.2 µM
10 | CCN(CC)C1=Nc2ccccc2-n2ccnc2C1 | > 100 µM | > 100 µM | > 100 µM | > 100 µM | > 100 µM | > 100 µM | > 100 µM | > 100 µM | > 100 µM | > 100 µM
11 | COC(=O)c1sc2nc(Nc3ccccc3)c(=Nc3ccccc3)sc2c1C | > 100 µM | > 100 µM |  | > 100 µM | > 100 µM | > 100 µM | > 100 µM |  | > 100 µM | 
12 | O=C(CSc1nc2ccccc2c(=O)n1-c1ccccc1)N=Nc1c(O)[nH]c2ccc(Br)cc12 | 10.3 µM | 14 µM | > 27.9 µM | 34 µM | > 29.4 µM | 3.99 µM | 4.03 µM | > 59.6 µM | 41.8 µM | 20 µM
13 | O=C1CC(Nc2ccccc2)c2c(Cl)sc(Cl)c21 (stereo unspecified) | > 100 µM | 1.94 µM | 5.21 µM | 3.17 µM | 5.18 µM |  | 3.06 µM | 4.36 µM | 24.6 µM | 
14 | O=[N+]([O-])C1=Cc2c(O)ccc(O)c2C2OC=CC12 (stereo unspecified) | > 100 µM | 32.5 µM | 30.9 µM | 6.1 µM | > 46.8 µM | > 56.2 µM | 31 µM | 27.9 µM | 38.2 µM | 21.3 µM
15 | OC1C2CN3CCN(C2)CC1(c1ccccc1)C3 (stereo unspecified) | > 100 µM | > 100 µM | > 100 µM | > 100 µM | > 100 µM | > 100 µM | > 100 µM | > 100 µM |  | > 100 µM
16 | CC(C)(C)c1ccc(O)c(C(O)c2ccccn2)c1 (stereo unspecified) | > 100 µM | > 100 µM | > 100 µM | > 100 µM | > 100 µM | > 100 µM | > 100 µM | > 100 µM | > 100 µM | > 100 µM
17 | COc1ccc(OC)c([N+](=O)[O-])c1-c1nc2sc(Cl)cn2c1/C=N/N=C(N)N | 56.3 µM | 46.3 µM | 46.3 µM | 46.3 µM | 23.2 µM | 43.1 µM | 41.8 µM | 38.7 µM | 56.8 µM | 40.4 µM
18 | COc1cc(O)c2c(=O)c3cccc(C)c3[nH]c2c1 | > 10 µM | > 10 µM | > 10 µM | > 10 µM | > 10 µM | > 10 µM | > 10 µM | > 10 µM | > 10 µM | > 10 µM
19 | CN(C)CCNc1c(O)c2c(c(O)c1Cl)C(=O)C=CC2=O | 6.66 µM | 3.39 µM |  | 3.68 µM | > 100 µM | 3.4 µM | 17.8 µM | 3.17 µM | 3.63 µM | 3.61 µM
20 | O=S(=O)(O)c1cc(O)c(N=NC2S(=O)(=O)OCCOS2(=O)=O)c2ccccc12 | > 100 µM | > 100 µM | > 100 µM | > 100 µM | > 100 µM | > 100 µM | > 100 µM | > 100 µM | > 100 µM | > 100 µM
21 | O=C(Nc1ccc(Cl)cc1)c1cc(S(=O)(=O)Nc2nc3ncccc3[nH]2)c(SSc2cc(Cl)c(C(=O)Nc3ccc(Cl)cc3)cc2S(=O)(=O)Nc2nc3ncccc3[nH]2)cc1Cl | > 100 µM | > 100 µM | > 100 µM | > 100 µM | > 100 µM | > 100 µM | > 100 µM | > 100 µM | > 100 µM | > 100 µM

Reference: PubChem BioAssay (NCI)
